Assay results published in patent US6407058B1, “Modifying the permeability of physiological barriers” (Eisai Co., Limited, priority 1996, dated 2002).

Assays:
Type in all cases: cell-based
p100/p120 [1] = test: p100/p120 electrophoretic mobility (band shift) by immunoblotting, MDCK I cells; details: 30 minutes
Procedure: The migration of the cellular proteins p100 and p120 during electrophoresis is increased following PDB-treatment of MDCK I cells. PDB (phorbol-12,13-dibutyrate) is a pharmacological activator of protein kinase C. MDCK I cells are a kidney derived epithelial cell line, with particularly well developed junctional complexes. Cells treated for 30 minutes with either 200 nM PDB (+) or vehicle (−) were then lysed into Laemmli sample buffer, and separated by electrophoresis using 6% acrylamide gels. Proteins were transferred to nitrocellulose and probed with antibodies to p100/p120, and then reprobed with E-cadherin and paxillin antibodies.
MDCK strain I and II cells were provided by Barry Gumbiner (memorial Sloan-Kettering Cancer Center, NY). LLC-PK1 and Caco-2 cells were obtained from the European Collection of Animal Cell Cultures. All cells were maintained at 37° C. under 5% CO2 in humidified air. MDCK strain I and II cells were maintained in MEM containing 10% FCS, 100 U/ml penicillin, 100 μg/ml streptomycin and 2 mM L-glutamine. Caco-2 cells were maintained in MEM containing 15% FCS, 1% non-essential amino acids and 1 μg/ml bovine insulin (Sigma I-6634). LLC-PK1 cells were grown in M199 (Gibco), 10% FCS, 100 U/ml penicillin, 100 μg/ml streptomycin and 2 mM L-glutamine. For whole cell lysate analysis, 10^5 cells were plated on 6.5 mm diameter, 0.4 μm, polycarbonate Transwell filters from Costar, in 0.25 ml of medium. The basolateral chamber contained 0.75 ml of medium. For immunoprecipitation, 5×10^5 cells were plated onto 24 mm Transwell filters, in 2 ml of medium, with 3 ml of medium in the lower chamber. Cells were used 4-7 days after plating. Tissue culture materials were from Gibco. Porcine brain endothelial cells were isolated and grown by modifications of a previously published procedure (Rubin et al., 1991). Brain capillary fragments were plated on dishes coated with rat tail collagen and human fibronectin. The cultures were fed every other day with growth medium composed of 50% astrocyte-conditioned medium and 50% Dulbecco's Modified Eagle Medium containing 10% plasma-derived serum, 125 μg/ml heparin, antibiotics and glutamine. They were incubated in a humidified atmosphere of 10% CO2 at 37° C. When the endothelial cells were approximately 50% confluent (after 4-6 days in culture), they were trypsinized and plated onto collagen-coated polycarbonate Transwell filters (6.5 mm diameter, 0.4 μm pore size, tissue culture treated, Costar Corp, Cambridge, Mass., U.S.A.) in the same medium (250 μl apically, 750 μl basolaterally). After 2-3 days on filters, the medium was switched to a 1:1 mixture of astrocyte-conditioned medium and a Dulbecco's Modified Eagle Medium-based, chemically defined medium (‘N2’, Rubin et al., 1991; Bottenstein and Sato, 1979). The final concentration of plasma-derived serum was 5%. Human umbilical vein endothelial cells were from Clonetics.
(§1) Whole cell lysates were prepared by rapidly replacing the culture medium in 6.5 mm with hot Laemmli sample buffer, followed by heating at 100° C. for 5 minutes. Immunoprecipitations were carried out at 4° C. Confluent monolayers of cells were washed rapidly with ice cold PBS (containing 0.9 mM CaCl2 and 0.5 mM MgCl2) before addition of 0.5 ml of the appropriate buffer. The filters were then gently scraped, and the lysate was removed and centrifuged at 14000× g. The supernatant was precleared with 10% (w/v) protein A-Sepharose in lysis buffer for 30-60 minutes. Appropriate primary antibodies were added to the lysate, and after 2-3 hours the immunecomplex was isolated, using rabbit anti-mouse secondary antibodies (Jackson Immunoresearch Labs Inc., West Grove, Pa.) and protein A-Sepharose. The beads were washed fives times with lysis buffer, and the bound protein was solubilized in SDS-sample buffer, followed by heating at 100° C. for 5 minutes.
Cell extracts or immunoprecipitates in SDS sample buffer were resolved by SDS-PAGE. […]

p100/p120 [2] = test: p100/p120 electrophoretic mobility, human umbilical vein endothelial cells (HUVECs); details: HUVEC, 5 minutes; histamine 10 μM, PDB 200 nM
[3] = test system: E-cadherin-associated p100/p120; test: E-cadherin immunoprecipitation and p100/p120 immunoblotting, MDCK I cells
Source text: It has been shown that although some of the p100/p120 in cells is associated with adherens junctions, there is also a large pool that is not complexed with cadherins (at least by immunoprecipitation analysis). […] This procedure served to isolate only that portion of the cellular p100/p120 that associates with the cadherins. Following electrophoresis, and transfer to nitrocellulose, the p100 and p120 present in E-cadherin immunoprecipitates were detected by immunoblotting (Example 9A). […] In both cases, p100/p120 is shown to be present at regions of cell—cell contact.
as §1
For Immunoprecipitations, Triton lysis buffer or TDS lysis buffer was used. Triton lysis buffer (pH adjusted to 7.4 using NaOH) contained 25 mM Hepes, 1% Triton X-100, 2 mM EDTA, 0.1 M NaCl, 25 mM NaF, 1 mM vanadate, and protease inhibitors. […]
Cell extracts or immunoprecipitates in SDS sample buffer were resolved by SDS-PAGE. […] The filters were then extensively washed in PBS/0.5% Tween-20, and immunoreactive bands were detected by enhanced chemiluminescence (Amersham) following the manufacturers instructions.

E-cadherin = test: [32P] phosphorylation of immunoprecipitated E-cadherin, MDCK I cells; details: PDB-treated, same cell lysates

CCCC(=O)O[C@@H]1[C@@H](C)[C@@]2(O)[C@@H](C=C(CO)C[C@]3(O)C(=O)C(C)=C[C@@H]23)[C@@H]2C(C)(C)[C@]12OC(=O)CCC [PDB, Phorbol-12,13-dibutyrate]
migration of p100 and p120 during electrophoresis (p100/p120 [1]; MDCK I cells, 200 nM PDB): migrate as faster, tighter bands
concentration of maximal effect on p100/p120 mobility (p100/p120 [1]; MDCK I, PDB 1 to 200 nM): 100 nM
mobility of p120 and p100 (p100/p120 [2]): increased mobility
phosphorylation of E-cadherin-associated p100/p120 ([3]; PDB, Triton lysis buffer, E-cadherin immunoprecipitates): is dephosphorylated
phosphorylation of non-E-cadherin-associated p100/p120 ([3]; PDB, data not shown): subject to dephosphorylation
amount of p100 and p120 present in E-cadherin immunoprecipitates ([3]; after addition of PDB): no obvious change
phosphorylation of E-cadherin (E-cadherin): no change
